Laboratory results from patent US10493042B2, “Method for preventing or treating diabetes mellitus, and method for screening for diabetes mellitus therapeutic agent” (UNIVERSITY-INDUSTRY COOPERATION GROUP OF KYUNG HEE …, priority 2013, dated 2019).

Tests used:
[1] = tested on: NCI-H716 cell; experiment: GLP-1 secretion in human enteroendocrine cell (ELISA); type: cell-based; conditions: 10, 20, 50, 100, 200, 500, 1000 and 2000 μM, 1 hour, FIG. 1A
Protocol: A NCI-H716 cell, i.e., a human enteroendocrine cell, was obtained from Korean Cell Line Bank. The obtained cell was culture in RPMI 1640 medium until the number of obtained cells increased in a proper amount. Then. the cells were moved to a matrigel-coated plate, and then cultured in DMEM medium for 48 hours, for endocrine differentiation.
Geraniol and nerol were purchased from Signa-Aldrich, USA.
Human enteroendocrine cells were each treated with geraniol at a concentration of 10, 20, 50, 100, 200, 500, 1000, and 2000 μM, respectively, and then cells were cultured for 1 hour. A human enteroendocrine cell was treated with nerol, which is an isomer of geraniol, as a comparison group, i.e., a negative control group, under the same condition as in the treating with geraniol.
GLP-1 secretion from the cell treated with geraniol and the cell treated with nerol were identified using enzyme-linked immunosorbent assay (ELISA). ELISA was carried out using a GLP-1 ELISA kit, available from Millipore, based on the user manual. The amount of GLP-1 secretion was measured using a fluoroskan ascent microplate reader (Thermo Electron Corp., Finland).

[2] = tested on: db/db mouse, type II diabetes mellitus model; experiment: Plasma GLP-1 and insulin after gavage and glucose (multiplex assay); type: in vivo; conditions: oral administration, glucose 2 g/weight Kg, compared with PBS group
Protocol: By using the same method in Example 2 (1), db/db mice of fasted state were each gavaged with geraniol, metformin, or saline. Then, each group were administered with glucose of 2 g/weight Kg. after 10 minutes, 20 minutes, 30 minutes, and 40 minutes elapsed, the amount of GLP-1 and insulin in plasma were measured by using multiplex assay (available from Bio-Rad, USA), based on the user manual, and Bio-Plex MAGPIX multiplex reader (available from Bio-Rad, USA).

[3] = tested on: human enteroendocrine cell; experiment: Change amount of cAMP in human enteroendocrine cell (cAMP ELISA); type: cell-based; conditions: 100 μM geraniol, FIG. 3
Protocol: In a human enteroendocrine cell, the result of geraniol treatment (100 μM) and forskolin treatment (10 μM), which is a cAMP activator, were compared with each other.

[4] = tested on: NCI-H716 cell; experiment: Cell viability MTT assay; type: cell-based, human; conditions: 10 μM to 1000 μM, 1 hour, compared with PBS, FIG. 8
Protocol: In order to verify cytotoxicity of geraniol on a human enteroendocrine cell, MTT assay was carried out as follows. In detail, cell viability assay was carried out using 3-(4,5-dimethylthiazol-2-yl)-2,5-diphenyltetrazolium) bromide (MTT) (available from Invitrogen, Carlsbad, Calif., USA). An endocrine cell, a NCI-H716 cell, was treated with geraniol of different levels of concentration and 6 mM MTT for 1 hour. Dimethyl sulfoxide (DMSO) was added to the cells, and absorbance thereof was measured using Bio-Rad model 680 microplated reader (Bio-Rad, Hercules, Calif., USA) at 540 nm.

[5] = tested on: db/db mouse, type II diabetes mellitus model; experiment: Oral glucose tolerance test with geraniol smelling (olfactory stimulation); type: in vivo
Protocol: A male 6 week-old db/db mouse was purchased from Daehan Biolink Co., Ltd (DBL, South Korea). A fasting blood sugar level of a db/db mouse of 18 hour-gastric emptying fasted state was measured. Then, the experimental group was stimulated (smelling) with geraniol through olfaction. The control group was oral administered with saline and metformin of 300 mg/weight Kg via gavage. Then, each of the experimental group and the control group were administered with glucose of 2 g/weight Kg. After 10 minutes, 20 minutes, 40 minutes, 90 minutes, and 120 minutes elapsed, the amount of GLP-1 in plasma was verified by using multiplex assay (available from Bio-Rad, USA).

[6] = tested on: human enteroendocrine cell; experiment: Change of calcium concentration in human enteroendocrine cell; type: cell-based; conditions: 100 μM, treated after 1 minute elapsed from the start of the experiment, FIG. 2
Text: FIG. 2 is a graph showing the change of calcium concentration in a human enteroendocrine cell after geraniol treatment.

[7] = tested on: db/db mouse, type II diabetes mellitus model; experiment: Oral glucose tolerance test after gavage; type: in vivo
Protocol: Oral glucose tolerance test was performed on a db/db mouse (leptin receptor knocked-out mice) (35 g to 39 g), which is a type II diabetes mellitus model. A male 6 week-old db/db mouse was purchased from Daehan Biolink Co., Ltd (DBL, South Korea). A fasting blood sugar level of a db/db mouse of 18 hour-gastric emptying fasted state was measured. Then, the experimental group and the control group were each oral administered with geraniol and metformin, and saline via gavage. Geraniol was administered at 150 or 500 mg/weight Kg, and metformin was administered at 300 mg/weight Kg. Then, each group was administered with glucose of 5 g/weight Kg. Oral glucose tolerance test (OGTT) was performed after 10 minutes, 20 minutes, 40 minutes, 90 minutes, and 120 minutes elapsed.

[8] = molecular target: T1, olfactory receptor OR1A1 (Homo sapiens, UniProt Q9P1Q5); experiment: GLP-1 secretion by geraniol in enteroendocrine cell with OR1A1 knocked-down by siRNA; type: cell-based; conditions: 100 μM, 1 hour, OR1A1 knocked-down vs normal cell, FIG. 1B
T1 construct: endogenous in cells; host or cells: human enteroendocrine cell (NCI-H716 named)
T1 sequence (Q9P1Q5 1-309): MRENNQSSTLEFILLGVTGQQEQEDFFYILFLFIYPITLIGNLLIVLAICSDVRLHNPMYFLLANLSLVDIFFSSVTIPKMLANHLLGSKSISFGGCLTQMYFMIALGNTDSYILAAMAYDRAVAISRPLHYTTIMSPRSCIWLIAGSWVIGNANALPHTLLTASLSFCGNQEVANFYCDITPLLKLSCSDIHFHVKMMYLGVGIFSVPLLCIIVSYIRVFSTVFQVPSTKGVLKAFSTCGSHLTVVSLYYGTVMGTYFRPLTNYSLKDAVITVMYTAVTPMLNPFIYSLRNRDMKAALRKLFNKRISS
Protocol: (§1) In a human enteroendocrine cell, in which an olfactory receptor is knocked-down by small-interference RNA (siRNA), an olfactory receptor signal transduction mechanism was identified.
(§2) Human enteroendocrine cells in which olfactory receptors OR1A1 and OR1G1 were knocked-down by siRNAs, respectively, were cultured. SiRNAs for knocking-down OR1A1 (SEQ ID NO. 1 and 2, siRNA No. 1108058) and OR1G1 (SEQ ID NO. 3 and 4, siRNA No. 1108121) are available from Bioneer Co. (South Korea). Lipofectamine 2000 (available from Life technology, USA) was used to carry out intracellular transfection, based on the user manual.
(§3) The human enteroendocrine cells in which olfactory receptors were knocked-down and a normal human enteroendocrine cell were each treated with geraniol at a concentration of 100 μM. Then, the cells were cultured for 1 hour at 37° C. at a concentration of 5% CO2. Thereafter, GLP-1 secretion was identified using ELISA.

[9] = molecular target: T2, olfactory receptor OR1G1 (Homo sapiens, UniProt P47890); experiment: GLP-1 secretion by geraniol in enteroendocrine cell with OR1G1 knocked-down by siRNA; type: cell-based; conditions: 100 μM, 1 hour, OR1G1 knocked-down vs normal cell, FIG. 1C
T2 construct: endogenous in cells; host or cells: human enteroendocrine cell (NCI-H716 named)
T2 sequence (P47890 1-313): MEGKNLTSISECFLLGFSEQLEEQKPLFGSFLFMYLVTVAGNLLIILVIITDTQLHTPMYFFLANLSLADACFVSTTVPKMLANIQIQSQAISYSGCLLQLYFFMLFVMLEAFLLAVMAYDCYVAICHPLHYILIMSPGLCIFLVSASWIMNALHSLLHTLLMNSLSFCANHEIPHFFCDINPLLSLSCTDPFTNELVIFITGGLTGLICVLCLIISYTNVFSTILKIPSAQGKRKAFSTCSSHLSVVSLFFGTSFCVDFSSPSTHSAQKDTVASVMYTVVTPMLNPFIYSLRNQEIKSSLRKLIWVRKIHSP
Protocol: as §1, §2, §3

Structure (SMILES)	GLP-1 secretion promoting effect [1]	plasma GLP-1 ([2]; FIG. 6A, 6C)	plasma insulin ([2]; FIG. 6B, 6D)	time after treatment at which concentration of cAMP in the cell was the highest [3]	cytotoxicity (cell viability, MTT) [4]	blood sugar level ([5]; geraniol smelling (olfactory stimulation), FIG. 9)	amount of GLP-1 in plasma ([5]; geraniol smelling, 10 minutes after glucose 2 g/weight Kg, vs metformin 300 mg/weight Kg oral, FIG. 10)	time at which calcium concentration in the cell was the highest [6]	hypoglycemic effect at oral glucose tolerance test ([7]; gavage 150 or 500 mg/weight Kg, glucose 5 g/weight Kg, compared with saline group, FIG. 5A-5C)	hypoglycemic effect compared with metformin ([7]; geraniol gavage 150 or 500 mg/weight Kg vs metformin 300 mg/weight Kg)	GLP-1 secretion via stimulation of OR1A1 [8]	GLP-1 secretion via stimulation of OR1G1 [9]
CC(C)=CCC/C(C)=C\CO [nerol, reference compound]	had no GLP-1 secretion promotion effect	–	–	–	–	–	–	–	–	–	–	–
CC(C)=CCC/C(C)=C/CO [geraniol]	dose-dependently promotes GLP-1 secretion	secretion inducing of GLP-1	additional insulin	30 min	found not to have cytotoxicity	lowered the blood sugar level	increased more than the case of metformin administration	4 min	exhibited hypoglycemic effect	comparable to metformin	stimulates OR1A1, an olfactory receptor, promoting GLP-1 secretion	stimulates OR1G1, an olfactory receptor, promoting GLP-1 secretion
